This passage reports melting point results from a melting point compilation (Tetko et al.).

Molecules are shown by their SMILES.

With `CC(C)(C)OC(=O)NCC1CCCCC12NC(=O)NC2=O` (configuration not stated), the melting point was in the range of 229 to 231 °C.
For `CC(C)N1C2CCCC1CC(O)C2` (configuration not stated) the value was 59 to 61 °C.
To `NC1=C(c2nc3ccccc3[nH]2)C(=O)CN1NC(=O)c1cccs1` belongs 270 to 272 °C; to `Nc1cc(F)cc(S(N)(=O)=O)c1`, 153 to 155 °C.
`O=C(O)C1CNc2ccccc21` (configuration not stated) yielded a melting point of 178 to 180 °C.
For `O=C(O)c1ncc(Cl)cc1Cl` the value was 139 to 141 °C; for `COc1cccc(OC)c1CO`, 53 to 55 °C; for `N#CC1(N2CCN(Cc3ccccc3)CC2)CCOCC1`, 105 to 107 °C.
Take `Nc1cccc(-c2ccc3c(c2)CCO3)n1`: the melting point was 123 to 125 °C.
To `Cc1cc(N)ccc1S(N)(=O)=O` belongs 169 to 171 °C; to `CCOC(=O)C(=O)c1cc(F)ccc1OC`, 49 to 51 °C; to `O=C(O)C1CCN(c2ccccc2Br)C1=O` (configuration not stated), 164 to 166 °C.
With `Cc1nn(-c2ccc(Cl)cc2)c(C)c1C(=O)O`, the melting point lay within 219 to 221 °C.
On to `O=C(O)c1cnn(-c2ccc(Cl)cc2)c1`, for which the melting point is 237 to 239 °C.
Take `O=C(O)C1CCCCN1S(=O)(=O)c1ccc(Br)s1` (configuration not stated): the melting point was 125 to 127 °C.
As to `Nc1ccc(C(=O)NCCO)cc1`, the melting point fell in the range of 115 to 117 °C.
Compound `O=C(O)C1CCCN(C(=O)Nc2ccccc2F)C1` (configuration not stated) yielded a melting point of 139 to 141 °C.
For `CC(N)c1ccc2[nH]c(=O)[nH]c2c1` (configuration not stated) the value was 394 to 396 °C; for `O=C(O)c1cccc(NS(=O)(=O)c2cccs2)c1`, 197 to 199 °C; for `COC(=O)C1CCCN1C(=O)c1ccc([N+](=O)[O-])s1` (configuration not stated), 119 to 121 °C.
The compound `O=[N+]([O-])c1cc(S(=O)(=O)N2CCCCC2)ccc1Cl` registered a melting point of 61 to 63 °C.
To `NC(CSCc1cccc2cccnc12)C(=O)O` (configuration not stated) belongs 171 to 173 °C; to `CCOC(=O)C(C#N)C(N)=O` (configuration not stated), 152 to 154 °C; to `O=C1CSC(c2ccc(F)cc2)N1C1CC1` (configuration not stated), 225 to 227 °C.
For `NS(=O)(=O)c1cc([N+](=O)[O-])ccc1Br` the value was 204 to 206 °C.
Compound `NCc1ncc(-c2ccccc2)[nH]1` showed a melting point of 142 to 144 °C.
For `O=C1OC(C=Cc2ccccc2)=NC1=Cc1cccnc1` the value was 165 to 167 °C; for `O=C(O)CCc1ccc2c(c1)CCO2`, 92 to 94 °C; for `C#CCNC(=O)c1ccc(Cl)nc1`, 139 to 141 °C.
For `COc1ccccc1C1(C)NC(=O)N(CC(=O)O)C1=O` (configuration not stated) the value was 179 to 181 °C; for `CSc1nc2[nH]cnc(=O)c2s1`, 269 to 271 °C; for `Nc1cc2c(cc1Br)NC(=O)CO2`, 209 to 211 °C.
To `CC(C)CNC(=O)c1ccc(N)cc1` belongs 119 to 121 °C; to `O=c1[nH]cnc2ncccc12`, 249 to 251 °C.
On to `NS(=O)(=O)c1cccc(F)c1`, for which the melting point lay in the range of 129 to 131 °C.
To `C=CC(=O)Nc1ccc(N(C)C(C)C)c(F)c1` belongs 81 to 83 °C; to `c1coc(-c2cc[nH]n2)c1`, 101 to 103 °C; to `Cc1cccc(C(=O)O)c1-n1cccc1`, 127 to 129 °C.
`Nc1cccc(CS(=O)(=O)c2ccc(F)cc2F)c1` came in with a melting point of 97 to 99 °C.
In the case of `O=C(O)Cn1ccc(C(F)(F)F)n1`, the melting point is 58 to 64 °C.
As for `CCc1cc(Cl)nc(-c2ccncc2)n1`, the melting point is 99 to 101 °C.
Regarding `O=S1(=O)N=C(Cl)c2ccccc21`, the melting point is 121 to 123 °C.
`O=C(O)CSc1ccc(Cl)cc1[N+](=O)[O-]` registered a melting point of 159 to 161 °C.
As for `O=C(O)c1cc(-c2ccccc2)nc2c1cnn2Cc1ccncc1`, the melting point was in the range of 279 to 281 °C.
For `O=C(O)C1CCCN(c2nccs2)C1` (configuration not stated) the value was 121 to 123 °C; for `O=C(CCl)N1CCCC1=O`, 33 to 35 °C; for `Nc1ccc(OCc2cccc(C(F)(F)F)c2)cc1`, 67 to 69 °C.
For `COC(=O)c1ccc(C(F)(F)F)cc1SC` the value was 49 to 51 °C; for `O=C(O)CNC(=O)NCC1CCCC1`, 138 to 140 °C.
In the case of `O=C(O)c1sccc1C1CC1`, the melting point fell in the range of 169 to 171 °C.
For `C#CCNC(=O)Nc1ccc(C(C)=O)cc1` the value was 169 to 171 °C; for `CCC(=O)N1CSCC1C(=O)O` (configuration not stated), 74 to 76 °C.
To `O=S(=O)(Nc1nc2ccccc2nc1Cl)c1cc(F)ccc1F` belongs 250 to 252 °C; to `CNS(=O)(=O)c1ccc(C#N)cc1`, 128 to 130 °C; to `NC(=O)CNS(=O)(=O)c1cccc(C(=O)O)c1`, 259 to 261 °C.
To `O=c1cc(CO)c2ccc(O)cc2o1` belongs 221 to 223 °C; to `O=C1CCCc2nc(-c3ccccc3Br)sc21`, 130 to 132 °C; to `O=C(COc1cccc2ccccc12)N1CCNCC1`, 141 to 143 °C.
`Nc1nc(-c2cccc(F)c2)cs1` gave a melting point of 113 to 115 °C.
`O=c1[nH]c(CCl)nc2sccc12` displayed a melting point of 209 to 211 °C.
For `Nc1c(-c2ccccc2)nc2ccccn12` the value was 152 to 155 °C.
`O=C(O)c1ccc(Cn2ccccc2=O)o1`: the melting point is 199 to 201 °C.
To `NCCNC(=O)c1ccc(Br)cc1` belongs 38 to 40 °C.
For the compound `Cc1ccc(OCCCC(=O)O)c(C)c1`, the melting point lay within 126 to 128 °C.
Consider `O=C(O)CC1SC(=NN=Cc2ccc(Br)s2)NC1=O` (configuration not stated), for which the melting point was 278 to 280 °C.
The compound `O=C(CCl)Nc1nc2c(s1)CCCC2` returned a melting point of 144 to 146 °C.
For `O=C(O)C1CC1C1CC1` (configuration not stated) the value was 29 to 31 °C; for `CC(=O)c1ccc(OCC(=O)Nc2ccccc2)cc1`, 94 to 96 °C.
For `N#Cc1ccc(Oc2ccc(Cl)cc2)c(F)c1` the value was 67 to 69 °C.
Consider `O=C(O)Cn1c(-c2ccccc2)cc2ccccc21`, for which the melting point was in the range of 145 to 147 °C.
`O=C(O)C1CCN(S(=O)(=O)c2cccc3c2N=S=N3)CC1` gave a melting point of 232 to 234 °C.
For `CCCCCC(C)CNC(=S)NN` (configuration not stated) the value was 48 to 50 °C; for `Cc1cccc(C2(C(F)(F)F)CCCN2)c1C` (configuration not stated), 45 to 47 °C; for `O=C(O)CSCC(=O)N1CCOCC1`, 119 to 121 °C.
As to `O=S(=O)(Cl)c1cnccc1Cl`, the melting point was in the range of 45 to 47 °C.
With `Fc1cc(Br)c(F)cc1S`, the melting point is 47 to 49 °C.
With `Nn1c(S)nnc1-c1ccncc1`, the melting point is 250 to 254 °C.
With `COC(=O)C(=O)CC(=O)c1ccc(Br)cc1`, the melting point lay within 104 to 106 °C.
For `Cc1ccc(C)n1-c1cn[nH]c1` the value was 155 to 157 °C; for `COC(=O)c1sc2ncc(C=O)cc2c1C`, 199 to 201 °C; for `COC(=O)C=CN(C)C`, 43 to 45 °C.
To `Cc1ccc(NS(=O)(=O)c2ccc(Cl)c([N+](=O)[O-])c2)c(C)c1` belongs 99 to 101 °C; to `Cc1c(N)cccc1S(=O)(=O)NC1CC1`, 111 to 113 °C.
For `COc1ccc(Oc2ncccc2N)cc1` the value was 149 to 151 °C; for `CCOC(=O)c1cnn(CCC#N)c1N`, 109 to 111 °C.
Take `Nc1cc(N2CCCS2(=O)=O)ccc1F`: the melting point lay in the range of 102 to 104 °C.
For `O=[N+]([O-])c1ccn(CCBr)n1` the value was 50 to 52 °C; for `O=C(O)c1ccc2nncn2c1`, 315 to 317 °C.
Compound `CC(C)(C)OC(=O)N1C2CCC1C(C(=O)O)C2` (configuration not stated) gave a melting point of 144 to 146 °C.
To `Cc1ccc(C(=O)c2cccc(S(C)(=O)=O)c2)c(C)c1` belongs 83 to 85 °C.
To `CNC(C)(C#N)Cn1cc(Br)cn1` (configuration not stated) belongs 33 to 35 °C; to `O=C(Nc1ccc(O)cc1)c1cccs1`, 166 to 168 °C; to `COCC(=O)Nc1cccc(N)c1`, 82 to 84 °C.
In turn, `Cc1ccc(C(=O)O)c(Cl)c1C` showed a melting point of 153 to 155 °C.
For `Nc1ccc(-c2nccn2C(F)F)cc1` the value was 84 to 86 °C; for `N#CCCOc1ccccc1`, 58 to 61 °C.
For `Cn1c(Cl)cnc1CC(N)=S` the value was 142 to 144 °C.
In the case of `NNC(=O)c1cc(Br)c[nH]1`, the melting point was in the range of 215 to 219 °C.
For `Cc1ccccc1-n1c(C)cc(C=O)c1C` the value was 71 to 73 °C; for `CNC(=O)c1cccc(CCl)c1`, 61 to 63 °C; for `NC(C(=O)O)c1cccc(F)c1` (configuration not stated), 273 to 275 °C.
Compound `O=C(O)c1ccc(NC(=O)c2ccccc2I)cc1` displayed a melting point of 275 to 277 °C.
To `Cc1cc2sc(N)nc2s1` belongs 117 to 119 °C.
`O=C(O)CNC(c1ccccc1)C(F)(F)F` (configuration not stated) gave a melting point of 191 to 193 °C.
Turning to `CCc1ccc(Nc2nnc(SCC(=O)O)s2)cc1`, the melting point lay in the range of 250 to 252 °C.
The compound `O=C(Nc1ccc(F)cc1)OCC(F)(F)F` registered a melting point of 76 to 80 °C.
To `CC(Oc1ccc(F)cc1Br)C(=O)O` (configuration not stated) belongs 87 to 89 °C; to `Cc1ccc(C(C)O)cc1[N+](=O)[O-]` (configuration not stated), 48 to 50 °C; to `COc1ccc2cc(CCl)c(Cl)nc2c1`, 133 to 135 °C.
For `NC(=O)NCc1ccc(C(=O)O)cc1` the value was 291 to 293 °C; for `NC1CCN(C2CCOCC2)C1=O` (configuration not stated), 50 to 52 °C.
For `O=C1CCc2ccc(F)cc2N1` the value was 187 to 189 °C.
Regarding `CCOC(=O)c1ccc(C(=O)O)nc1C`, the melting point is 88 to 90 °C.
Take `Cn1nc(C(=O)O)cc1C1CC1`: the melting point lay in the range of 196 to 198 °C.
On to `FC(F)Oc1cccc(-c2ccc(Cl)nn2)c1`, for which the melting point was 86 to 88 °C.
As to `Cc1nc(N)ccc1I`, the melting point lay within 99 to 100 °C.
Compound `Nc1sc2c(c1C(=O)O)CCC2` registered a melting point of 147 to 149 °C.
As for `COc1ccc(-c2csc(C)n2)cc1OC`, the melting point is 74 to 76 °C.
For `Brc1nnc(Cc2ccccc2)s1` the value was 79 to 81 °C.
`COc1ccc(CC(=O)NO)cc1` displayed a melting point of 159 to 161 °C.
For `O=[N+]([O-])c1cc(S(=O)(=O)Nc2ccc(Br)cc2)ccc1Cl` the value was 123 to 125 °C; for `c1ccc(-c2nnn[nH]2)nc1`, 214 to 216 °C.

In general, melting point refers to the temperature, or range, at which the solid turns liquid.
